According to US20240165109A1, “Methods of Treatment with Selective CB2 Receptor Agonists” (Arena Pharmaceuticals, Inc., priority 2021, published 2024):

What was measured:
[1] = target: T1, human CB2 receptor (Homo sapiens, UniProt P34972); experiment: selectivity for human CB2 receptor versus human CB1 receptor; conditions: human CB2 vs human CB1
Excerpt: (§1) Methods of treating pain, including visceral pain with APD371 are described in US patent application publication no. 2020-0078358, which is herein incorporated by reference in its entirety.

[2] = target: T1, human CB2 receptor; experiment: CB2 receptor internalization efficacy relative to CP55,940 (human); type: cell-based
Excerpt: as §1

[3] = system: paclitaxel-induced neuropathic pain; experiment: paclitaxel-induced neuropathic pain model; conditions: in vivo
Excerpt: as §1

[4] = system: osteoarthritis pain; experiment: osteoarthritis pain model; type: in vivo
Excerpt: as §1

[5] = system: painful peripheral diabetic neuropathy; experiment: painful peripheral diabetic neuropathy model; conditions: in vivo
Excerpt: as §1

[6] = system: subjects with irritable bowel syndrome experiencing abdominal pain; conditions: 50 mg tid, week 12, subgroup with baseline AAPS >= 6.5 (moderate to severe pain)
[7] = target: T2, rat CB2 receptors (Rattus norvegicus, UniProt Q9QZN9); experiment: CB2 receptor internalization efficacy relative to CP55,940 (rat); type: cell-based
T2 sequence (Q9QZN9 1-360): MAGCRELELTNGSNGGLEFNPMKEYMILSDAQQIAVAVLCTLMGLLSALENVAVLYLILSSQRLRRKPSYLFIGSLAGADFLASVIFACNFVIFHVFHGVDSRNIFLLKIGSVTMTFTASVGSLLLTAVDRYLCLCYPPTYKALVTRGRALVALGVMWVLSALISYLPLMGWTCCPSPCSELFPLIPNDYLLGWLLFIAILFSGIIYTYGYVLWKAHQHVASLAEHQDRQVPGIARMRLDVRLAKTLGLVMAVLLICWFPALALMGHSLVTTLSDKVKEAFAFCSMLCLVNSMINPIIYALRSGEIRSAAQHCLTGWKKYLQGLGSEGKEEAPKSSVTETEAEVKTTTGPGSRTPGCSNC
Excerpt: as §1

T1 sequence (P34972 whole entry): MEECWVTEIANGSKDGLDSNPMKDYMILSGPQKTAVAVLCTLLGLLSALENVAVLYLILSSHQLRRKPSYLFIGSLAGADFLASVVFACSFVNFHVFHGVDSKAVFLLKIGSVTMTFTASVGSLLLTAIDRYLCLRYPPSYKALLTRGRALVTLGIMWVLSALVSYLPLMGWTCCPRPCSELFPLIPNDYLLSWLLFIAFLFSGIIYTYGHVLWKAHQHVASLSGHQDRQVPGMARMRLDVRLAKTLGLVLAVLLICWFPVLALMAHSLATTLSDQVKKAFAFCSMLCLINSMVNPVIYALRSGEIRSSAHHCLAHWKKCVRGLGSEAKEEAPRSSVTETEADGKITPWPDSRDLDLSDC

- selectivity for the human CB2 receptor versus the human CB1 receptor [1]: > 1,000 fold
- receptor internalization efficacy relative to CP55,940 [2]: 96%
- receptor internalization efficacy relative to CP55,940 [7]: 105%
Compound: CC(C)(C)[C@@H](CO)NC(=O)c1nn(-c2c[n+]([O-])ccn2)c2c1C[C@@H]1C[C@H]21 [Compound A, (1aS,5aS)-2-(4-Oxy-pyrazin-2-yl)-1a,2,5,5a-tetrahydro-1H-2,3-diaza-cyclopropa[a]pentalene-4-carboxylic acid ((S)-1-Hydroxymethyl-2,2-dimethyl-propyl)-amide]
- efficacy in model of paclitaxel-induced neuropathic pain [3]: sustained efficacy
- efficacy in model of osteoarthritis pain ([4]; in vivo): sustained efficacy
- duration of in vivo efficacy following dosing ([4]; osteoarthritis pain model, despite rapidly declining plasma concentrations): maintained in vivo efficacy for four hours following dosing
- efficacy in model of painful peripheral diabetic neuropathy [5]: sustained efficacy
- reduction in AAPS from baseline [6]: 3.93 points
- reduction in AAPS compared to placebo ([6]; p=0.01): 1.64 points
